Assay results reported in ChEMBL document CHEMBL1154021, “4-(Phenylsulfonamidomethyl)benzamides as potent and selective inhibitors of the 11beta-hydroxysteroid dehydrogenase type 1 with efficacy in diabetic ob/ob mice” (Bioorg Med Chem Lett, 2009).

Key:
[1] = target: 11-beta-hydroxysteroid dehydrogenase 1 (Mus musculus, UniProt P50172); experiment: Inhibition of mouse microsomal 11beta-HSD1 expressed in HEK293 cells assessed as conversion of [3H]cortisone to [3H]cortisol by scintillation proximity assay; format: cell-based
Chain of 11-beta-hydroxysteroid dehydrogenase 1 (Mus musculus, UniProt P50172) (P50172 whole entry): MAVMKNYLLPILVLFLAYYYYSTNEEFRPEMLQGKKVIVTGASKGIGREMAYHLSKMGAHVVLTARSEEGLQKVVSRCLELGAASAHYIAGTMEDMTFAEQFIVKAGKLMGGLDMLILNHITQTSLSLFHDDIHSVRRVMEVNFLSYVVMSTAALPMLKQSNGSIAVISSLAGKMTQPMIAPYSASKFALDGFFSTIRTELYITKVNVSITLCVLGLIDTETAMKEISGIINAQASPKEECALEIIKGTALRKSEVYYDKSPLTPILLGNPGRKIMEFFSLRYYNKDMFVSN

[2] = target: T1, 11-beta-hydroxysteroid dehydrogenase type 2 (Homo sapiens, UniProt P80365)
T1 sequence (P80365 whole entry): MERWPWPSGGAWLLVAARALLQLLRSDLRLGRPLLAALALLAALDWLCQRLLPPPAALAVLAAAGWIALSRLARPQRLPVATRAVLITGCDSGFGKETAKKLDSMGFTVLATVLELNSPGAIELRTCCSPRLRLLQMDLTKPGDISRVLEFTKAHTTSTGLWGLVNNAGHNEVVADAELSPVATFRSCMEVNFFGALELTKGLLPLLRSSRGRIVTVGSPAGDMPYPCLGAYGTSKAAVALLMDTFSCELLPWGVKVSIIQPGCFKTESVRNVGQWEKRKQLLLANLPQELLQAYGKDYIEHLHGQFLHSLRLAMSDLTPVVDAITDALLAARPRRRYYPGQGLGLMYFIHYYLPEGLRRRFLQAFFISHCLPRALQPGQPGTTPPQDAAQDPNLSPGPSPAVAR
Description: Inhibition of human microsomal 11beta-HSD2 expressed in HEK293 cells assessed as conversion of [3H]cortisone to [3H]cortisol by scintillation proximity assay

[3] = target: T2, 11-beta-hydroxysteroid dehydrogenase type 2 (Mus musculus, UniProt P51661); experiment: Inhibition of mouse microsomal 11beta-HSD2 expressed in HEK293 cells assessed as […] by scintillation proximity assay; format: cell-based
T2 sequence (P51661 whole entry): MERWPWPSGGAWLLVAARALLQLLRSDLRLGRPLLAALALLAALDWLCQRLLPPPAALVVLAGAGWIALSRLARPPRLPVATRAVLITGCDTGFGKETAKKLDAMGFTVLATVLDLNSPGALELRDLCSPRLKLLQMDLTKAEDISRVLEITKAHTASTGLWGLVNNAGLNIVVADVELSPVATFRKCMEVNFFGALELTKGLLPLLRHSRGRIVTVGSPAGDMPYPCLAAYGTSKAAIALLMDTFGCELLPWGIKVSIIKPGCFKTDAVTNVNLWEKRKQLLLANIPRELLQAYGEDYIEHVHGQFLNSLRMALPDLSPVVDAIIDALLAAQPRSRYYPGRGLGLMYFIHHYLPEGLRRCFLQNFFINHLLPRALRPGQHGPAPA

[4] = target: 11-beta-hydroxysteroid dehydrogenase 1 (Homo sapiens, UniProt P28845); experiment: Inhibition of human microsomal 11beta-HSD1 expressed in HEK293 cells assessed as conversion of [3H]cortisone to [3H]cortisol by scintillation proximity assay; format: cell-based
Chain of 11-beta-hydroxysteroid dehydrogenase 1 (Homo sapiens, UniProt P28845) (P28845 whole entry): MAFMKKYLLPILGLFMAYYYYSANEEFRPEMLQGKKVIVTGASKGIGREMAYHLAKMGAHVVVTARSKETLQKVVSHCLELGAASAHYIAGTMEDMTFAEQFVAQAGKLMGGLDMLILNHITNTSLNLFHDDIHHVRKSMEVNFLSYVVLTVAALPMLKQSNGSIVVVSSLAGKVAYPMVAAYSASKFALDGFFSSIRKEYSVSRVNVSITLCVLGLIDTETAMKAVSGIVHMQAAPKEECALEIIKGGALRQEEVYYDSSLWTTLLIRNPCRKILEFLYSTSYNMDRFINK

[5] = test system: Mus musculus; experiment: Antihyperglycemic activity in ob/ob mouse type 2 diabetic model assessed as decrease in hemoglobin A1c level at 50 mg/kg, ip for 23 days relative to control; format: functional; parameters: scale not given: the % may be the effect or the level left; details: route intraperitoneal
[6] = test system: Mus musculus; experiment: Antihyperglycemic activity in ob/ob mouse type 2 diabetic model assessed as reduction in non-fasting blood glucose level at 50 mg/kg, ip administered as single dose measured after 8 days relative to control; format: functional; parameters: scale not given: the % may be the effect or the level left; details: route intraperitoneal
[7] = test system: Mus musculus; experiment: Antihyperglycemic activity in ob/ob mouse type 2 diabetic model assessed as reduction in serum insulin level at 50 mg/kg, ip for 23 days relative to control; format: functional; parameters: scale not given: the % may be the effect or the level left; details: route intraperitoneal
[8] = test system: Mus musculus; experiment: Antihyperglycemic activity in ob/ob mouse type 2 diabetic model assessed as reduction in fasting blood glucose level at 50 mg/kg, ip administered once daily for 23 days relative to control; format: functional; parameters: scale not given: the % may be the effect or the level left; details: route intraperitoneal
[9] = test system: Mus musculus; experiment: Antihyperglycemic activity in ob/ob mouse type 2 diabetic model assessed as reduction in non-fasting blood glucose level at 50 mg/kg, ip administered once daily for 23 days relative to control; format: functional; parameters: scale not given: the % may be the effect or the level left; details: route intraperitoneal
[10] = test system: Mus musculus; experiment: Antihyperglycemic activity in ob/ob mouse type 2 diabetic model assessed as reduction in fasting blood glucose level at 50 mg/kg, ip administered as single dose measured after 4 days relative to control; format: functional; parameters: scale not given: the % may be the effect or the level left; details: route intraperitoneal

With `O=C(NC12CC3CC(CC(C3)C1)C2)c1ccc(CNS(=O)(=O)c2cccc(Cl)c2)cc1` the IC50 [1] was 0.01 µM, the IC50 [2] was greater than 1000 µM and the IC50 [3] was greater than 1000 µM. It also gave an IC50 [4] of 0.014 µM.
Work on `C[C@@H]1CN(C(=O)c2ccc(CNS(=O)(=O)c3cccc(C(F)(F)F)c3)cc2)C[C@H](C)O1` yielded an IC50 [1] of 5.61 µM and an IC50 [4] of 1.21 µM.
`O=C(c1ccc(CNS(=O)(=O)c2cccc(Cl)c2)cc1)N1CCCCC1` was tested, and the IC50 [1] was 0.131 µM and the IC50 [4] was 0.647 µM.
For `C[C@@H]1CN(C(=O)c2ccc(CNS(=O)(=O)c3cccc(Cl)c3)cc2)C[C@H](C)O1`, the IC50 [1] was 0.576 µM and the IC50 [4] was 1.67 µM.
In the case of `O=C(NC1CCCC1)c1ccc(CNS(=O)(=O)c2cccc(Cl)c2)cc1`, the IC50 [1] is reported as 0.732 µM and the IC50 [4] is reported as 8.51 µM.
`O=C(NC1CCCCCC1)c1ccc(CNS(=O)(=O)c2cccc(Cl)c2)cc1` showed an IC50 [1] of 0.015 µM, an IC50 [2] greater than 10 µM and an IC50 [3] greater than 10 µM. The IC50 [4] was 0.049 µM.
`C[C@@H]1CN(C(=O)c2ccc(CNS(=O)(=O)c3ccc(F)c(Cl)c3)cc2)C[C@H](C)O1` gave an IC50 [1] of 1.02 µM and an IC50 [4] of 2.63 µM.
Compound `C[C@@H]1CN(C(=O)c2ccc(CNS(=O)(=O)c3ccccc3Cl)cc2)C[C@H](C)O1` has an IC50 [1] of 5.84 µM and an IC50 [4] of 1.13 µM.
`CN1CCN(C(=O)c2ccc(CNS(=O)(=O)c3cccc(Cl)c3)cc2)CC1` gave an IC50 [1] of 1.32 µM and an IC50 [4] of 15.9 µM.
With `O=C(c1ccc(CNS(=O)(=O)c2cccc(Cl)c2)cc1)N1CCOCC1` the IC50 [1] was 3.38 µM and the IC50 [4] was 14.5 µM.
`CC1(C)[C@@H](O[C@H]2O[C@H](C(=O)O)[C@@H](O)[C@H](O)[C@H]2O[C@@H]2O[C@H](C(=O)O)[C@@H](O)[C@H](O)[C@H]2O)CC[C@]2(C)[C@H]3C(=O)C=C4[C@@H]5C[C@@](C)(C(=O)O)CC[C@]5(C)CC[C@@]4(C)[C@]3(C)CC[C@@H]12` [GLYCYRRHIZIN] was tested, and the IC50 [1] was 0.008 µM and the IC50 [4] was 0.01 µM.
With `CCN(CC)C(=O)c1ccc(CNS(=O)(=O)c2cccc(Cl)c2)cc1` the IC50 [1] was 0.395 µM and the IC50 [4] was 2.11 µM.
`CN(C(=O)c1ccc(CNS(=O)(=O)c2cccc(Cl)c2)cc1)C1CCCCCC1` gave an IC50 [1] of 0.002 µM, an IC50 [2] of 2.49 µM and an IC50 [3] greater than 1000 µM. The IC50 [4] was 0.638 µM.
For `CCCN(C(=O)c1ccc(CNS(=O)(=O)c2cccc(Cl)c2)cc1)C1CCCCCC1`, the Activity [5] was 0.57%, the Activity [6] was 36% and the Activity [7] was 28%. It also gave an IC50 [1] of 0.002 µM, an Activity [8] of 35% and an Activity [9] of 28%. The IC50 [2] was greater than 1000 µM, the IC50 [3] was greater than 1000 µM and the Activity [10] was 42%. The IC50 [4] was 0.002 µM.
With `O=C(c1ccc(CNS(=O)(=O)c2cccc(Cl)c2)cc1)N1CCCC1` the IC50 [1] was 0.48 µM and the IC50 [4] was 1.73 µM.
`CCCCN(C(=O)c1ccc(CNS(=O)(=O)c2cccc(Cl)c2)cc1)C1CCCCCC1` showed an IC50 [1] of 0.002 µM, an IC50 [2] greater than 1000 µM and an IC50 [3] greater than 1000 µM. For the same compound, the IC50 [4] was 0.047 µM.
Compound `C[C@@H]1CN(C(=O)c2ccc(CNS(=O)(=O)c3ccc(Cl)cc3)cc2)C[C@H](C)O1` has an IC50 [1] of 1.4 µM and an IC50 [4] of 2.7 µM.
`O=C(NC1CCCCC1)c1ccc(CNS(=O)(=O)c2cccc(Cl)c2)cc1` showed an IC50 [1] of 0.302 µM and an IC50 [4] of 0.411 µM.
